Assay results taken from US20250367100A1, “GINSENOSIDE COMPOSITION, DAILY CHEMICAL AND USE” (INCIPIRIT TECH (GUANGZHOU) CO., LTD., priority 2023, published 2025).
Where a name gives a salt, the structure may show the parent alone.

Test system: human epidermal keratinocytes
Assay: Proliferation of epidermal keratinocytes in a co-culture system of dermal papilla cells and epidermal keratinocytes
Assay type: cell-based
Details: 0.2 μg/ml, 2 μg/ml, 20 μg/ml, 200 μg/ml, FIG. 5
Procedure: Add 500 μl of human epidermal keratinocytes (30,000 cells/ml) to each well of a 24-well MULTIWELL plate, then add a 1.0 μm of cell culture insert, and culture for 1 day. The 1.0 μm of cell culture insert already contains 300 μl of dermal papilla cells (20,000 cells/ml). Subsequently, add 1 μl/well each of the ginseng extracts 1-7, the positive control minoxidil sulfate, and the blank control (DMSO), and continue culturing for 3 days. Remove the 1.0 μm of cell culture insert, add 50 μl/well of Cell Counting Kit-8 (Dojindo Molecular Technologies, Inc.), continue culturing for 2 hours, and determine cell number using a microplate reader (450 nm, Mix 0).

Q: For `Nc1cc(N2CCCCC2)nc(N)[n+]1OS(=O)(=O)[O-]` [minoxidil sulfate], which “proliferation of keratinocytes in co-culture system” value is on record?
A: Its value is “no effect in promoting the proliferation of keratinocyte”.
